Numbered stars: 1 amine (or outer) side, 2 acyl side, 3 side chain; on linkers, the order of the positions; unused ones are H or OH. Square brackets hold non-standard residues; d marks the D form. Side chains are listed from the residue outwards. Peptide text beside a SMILES is read from it. * marks the point of attachment. C18 diacid = O=C(O)CCCCCCCCCCCCCCCCC(=O)*; γGlu = O=C(O)[C@H](CCC(=O)[*:2])N[*:1]; AEEA = NCCOCCOCC(=O)O; Aib = CC(C)(N)C(=O)O
Target: T1, GC receptor (Homo sapiens, UniProt P47871)
T1 construct: expressed in transfected cells; host or cells: HEK293 cells
Assay: GC receptor mediated cAMP production in vitro (HEK293 cells transfected with GC receptor)
Format: cell-based
Conditions: 20 min at 37° C., read-out: GCGR (nM EC50)
Description: The medium was removed, the cells were lysed, and cAMP values were detected referring to the detection method described for the assay kit.

T1 sequence (P47871 26-477): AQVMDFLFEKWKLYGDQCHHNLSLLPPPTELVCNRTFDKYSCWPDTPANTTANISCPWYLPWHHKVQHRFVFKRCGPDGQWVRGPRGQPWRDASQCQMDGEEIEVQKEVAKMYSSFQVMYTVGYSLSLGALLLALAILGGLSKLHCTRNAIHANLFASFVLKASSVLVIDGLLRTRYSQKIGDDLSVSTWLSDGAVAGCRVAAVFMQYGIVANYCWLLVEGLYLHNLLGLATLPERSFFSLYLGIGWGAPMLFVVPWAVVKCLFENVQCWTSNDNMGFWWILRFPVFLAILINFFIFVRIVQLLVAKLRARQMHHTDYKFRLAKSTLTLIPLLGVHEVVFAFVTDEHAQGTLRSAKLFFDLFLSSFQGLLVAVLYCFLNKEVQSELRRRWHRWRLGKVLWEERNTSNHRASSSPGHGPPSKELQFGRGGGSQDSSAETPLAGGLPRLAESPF

First: CC[C@H](C)[C@H](NC(=O)[C@H](Cc1ccccc1)NC(=O)[C@H](CCC(=O)O)NC(=O)[C@H](CCCCN)NC(=O)[C@H](C)NC(=O)[C@H](C)NC(=O)[C@H](CCCNC(=N)N)NC(=O)[C@H](CCC(=O)O)NC(=O)[C@H](CC(=O)O)NC(=O)[C@H](CC(C)C)NC(=O)[C@H](Cc1ccc(O)cc1)NC(=O)[C@H](CCCCN)NC(=O)[C@H](CO)NC(=O)[C@H](CCCCNC(=O)COCCOCCNC(=O)COCCOCCNC(=O)CC[C@H](NC(=O)CCCCCCCCCCCCCCCCC(=O)O)C(=O)O)NC(=O)[C@H](CC(=O)O)NC(=O)[C@H](CO)NC(=O)[C@@H](NC(=O)[C@H](Cc1ccccc1)NC(=O)[C@@H](NC(=O)CNC(=O)[C@H](CCC(N)=O)NC(=O)[C@H](CO)NC(=O)[C@@H](N)Cc1c[nH]cn1)[C@@H](C)O)[C@@H](C)O)C(=O)N[C@@H](C)C(=O)N[C@@H](Cc1c[nH]c2ccccc12)C(=O)N[C@@H](CC(C)C)C(=O)N[C@@H](CCC(=O)O)C(=O)N[C@@H](C)C(=O)NCC(=O)NCC(=O)N1CCC[C@H]1C(=O)N[C@@H](CO)C(=O)N[C@@H](CO)C(=O)NCC(N)=O [Compound 79] (H-HSQGTFTSDK([AEEA-AEEA-γGlu-C18 diacid])SKYLDERAAKEFIAWLEAGGPSSG-NH2; N-terminus assumed)
Second: CC[C@H](C)[C@H](NC(=O)[C@H](Cc1ccccc1)NC(=O)[C@H](CCC(=O)O)NC(=O)[C@H](CCCCNC(=O)COCCOCCNC(=O)COCCOCCNC(=O)CC[C@H](NC(=O)CCCCCCCCCCCCCCCCC(=O)O)C(=O)O)NC(=O)[C@H](C)NC(=O)[C@H](CCCNC(=N)N)NC(=O)[C@H](CCCCN)NC(=O)[C@H](CCC(=O)O)NC(=O)[C@H](CC(=O)O)NC(=O)[C@H](CC(C)C)NC(=O)[C@H](Cc1ccc(O)cc1)NC(=O)[C@H](CCCCN)NC(=O)[C@H](CO)NC(=O)[C@H](Cc1ccc(O)cc1)NC(=O)[C@H](CC(=O)O)NC(=O)[C@H](CO)NC(=O)[C@@H](NC(=O)[C@H](Cc1ccccc1)NC(=O)[C@@H](NC(=O)CNC(=O)[C@H](CCC(N)=O)NC(=O)C(C)(C)NC(=O)[C@@H](N)Cc1c[nH]cn1)[C@@H](C)O)[C@@H](C)O)C(=O)N[C@@H](C)C(=O)N[C@@H](Cc1c[nH]c2ccccc12)C(=O)N[C@@H](CC(C)C)C(=O)N[C@@H](CCC(=O)O)C(=O)N[C@@H](C)C(=O)NCC(=O)NCC(=O)N1CCC[C@H]1C(=O)N[C@@H](CO)C(=O)N[C@@H](CO)C(=O)NCC(N)=O [Compound 50] (H-H[Aib]QGTFTSDYSKYLDEKRAK([AEEA-AEEA-γGlu-C18 diacid])EFIAWLEAGGPSSG-NH2; N-terminus assumed)
The EC50 of the first is 1.9-fold lower: 0.025 nM for the first, 0.048 nM for the second.

`CC[C@H](C)[C@H](NC(=O)[C@H](Cc1ccccc1)NC(=O)[C@H](CCC(=O)O)NC(=O)[C@H](CCCCN)NC(=O)[C@H](C)NC(=O)[C@H](CCCNC(=N)N)NC(=O)[C@H](CCCCN)NC(=O)[C@H](CCC(=O)O)NC(=O)[C@H](CC(=O)O)NC(=O)[C@H](CC(C)C)NC(=O)[C@H](Cc1ccc(O)cc1)NC(=O)[C@H](CCCCN)NC(=O)[C@H](CO)NC(=O)[C@H](CCCCNC(=O)COCCOCCNC(=O)COCCOCCNC(=O)CC[C@H](NC(=O)CCCCCCCCCCCCCCCCC(=O)O)C(=O)O)NC(=O)[C@H](CC(=O)O)NC(=O)[C@H](CO)NC(=O)[C@@H](NC(=O)[C@H](Cc1ccccc1)NC(=O)[C@@H](NC(=O)CNC(=O)[C@H](CCC(N)=O)NC(=O)C(C)(C)NC(=O)[C@@H](N)Cc1c[nH]cn1)[C@@H](C)O)[C@@H](C)O)C(=O)N[C@@H](CCC(=O)O)C(=O)N[C@@H](Cc1c[nH]c2ccccc12)C(=O)N[C@@H](CC(C)C)C(=O)N[C@@H](CCC(=O)O)C(=O)N[C@@H](C)C(=O)NCC(=O)NCC(=O)N1CCC[C@H]1C(=O)N[C@@H](CO)C(=O)N[C@@H](CO)C(=O)NCC(N)=O` [Compound 23] (H-H[Aib]QGTFTSDK([AEEA-AEEA-γGlu-C18 diacid])SKYLDEKRAKEFIEWLEAGGPSSG-NH2; N-terminus assumed) and `CC(C)C[C@H](NC(=O)[C@H](Cc1c[nH]c2ccccc12)NC(=O)[C@H](C)NC(=O)[C@@H](NC(=O)[C@H](Cc1ccccc1)NC(=O)[C@H](CCC(=O)O)NC(=O)[C@H](CCCCN)NC(=O)[C@H](C)NC(=O)[C@H](C)NC(=O)[C@H](CCCNC(=N)N)NC(=O)[C@H](CCC(=O)O)NC(=O)[C@H](CCC(=O)O)NC(=O)[C@H](CC(C)C)NC(=O)[C@H](Cc1ccc(O)cc1)NC(=O)[C@H](CCCCN)NC(=O)[C@H](CO)NC(=O)[C@H](CCCCNC(=O)COCCOCCNC(=O)COCCOCCNC(=O)CC[C@H](NC(=O)CCCCCCCCCCCCCCCCC(=O)O)C(=O)O)NC(=O)[C@H](CC(=O)O)NC(=O)[C@H](CO)NC(=O)[C@@H](NC(=O)[C@H](Cc1ccccc1)NC(=O)[C@@H](NC(=O)CNC(=O)[C@H](CCC(N)=O)NC(=O)C(C)(C)NC(=O)[C@@H](N)Cc1c[nH]cn1)[C@@H](C)O)[C@@H](C)O)C(C)C)C(=O)N[C@@H](CCCCN)C(=O)N[C@@H](CCC(=O)O)C(=O)NCC(=O)NCC(=O)N1CCC[C@H]1C(=O)N[C@@H](CO)C(=O)N[C@@H](CO)C(=O)NCC(N)=O` [Compound 17] (H-H[Aib]QGTFTSDK([AEEA-AEEA-γGlu-C18 diacid])SKYLEERAAKEFVAWLKEGGPSSG-NH2; N-terminus assumed) are within 1.5-fold of each other in EC50: 0.329 nM for the first, 0.486 nM for the second.

Going from `CC(C)C[C@H](NC(=O)[C@H](Cc1c[nH]c2ccccc12)NC(=O)[C@H](C)NC(=O)[C@@H](NC(=O)[C@H](Cc1ccccc1)NC(=O)[C@H](CCC(=O)O)NC(=O)[C@H](CCCCNC(=O)COCCOCCNC(=O)COCCOCCNC(=O)CC[C@H](NC(=O)CCCCCCCCCCCCCCCCC(=O)O)C(=O)O)NC(=O)[C@H](C)NC(=O)[C@H](CCCNC(=N)N)NC(=O)[C@H](CCCCN)NC(=O)[C@H](CCC(=O)O)NC(=O)[C@H](CCC(=O)O)NC(=O)[C@H](CC(C)C)NC(=O)[C@H](Cc1ccc(O)cc1)NC(=O)[C@H](CCCCN)NC(=O)[C@H](CO)NC(=O)[C@H](Cc1ccc(O)cc1)NC(=O)[C@H](CC(=O)O)NC(=O)[C@H](CO)NC(=O)[C@@H](NC(=O)[C@H](Cc1ccccc1)NC(=O)[C@@H](NC(=O)CNC(=O)[C@H](CCC(N)=O)NC(=O)C(C)(C)NC(=O)[C@@H](N)Cc1c[nH]cn1)[C@@H](C)O)[C@@H](C)O)C(C)C)C(=O)N[C@@H](CCC(=O)O)C(=O)NCC(=O)NCC(=O)N1CCC[C@H]1C(=O)N[C@@H](CO)C(=O)N[C@@H](CO)C(=O)NCC(N)=O` [Compound 74] (H-H[Aib]QGTFTSDYSKYLEEKRAK([AEEA-AEEA-γGlu-C18 diacid])EFVAWLEGGPSSG-NH2; N-terminus assumed) to `CCCCCCCCCCCCCCCC(=O)N[C@@H](CCC(=O)N[C@@H](CCC(=O)NCCCC[C@H](NC(=O)[C@H](C)NC(=O)[C@H](CCCNC(=N)N)NC(=O)[C@H](CCCCN)NC(=O)[C@H](CCC(=O)O)NC(=O)[C@H](CCC(=O)O)NC(=O)[C@H](CC(C)C)NC(=O)[C@H](Cc1ccc(O)cc1)NC(=O)[C@H](CCCCN)NC(=O)[C@H](CO)NC(=O)[C@H](Cc1ccc(O)cc1)NC(=O)[C@H](CC(=O)O)NC(=O)[C@H](CO)NC(=O)[C@@H](NC(=O)[C@H](Cc1ccccc1)NC(=O)[C@@H](NC(=O)CNC(=O)[C@H](CCC(N)=O)NC(=O)C(C)(C)NC(=O)[C@@H](N)Cc1c[nH]cn1)[C@@H](C)O)[C@@H](C)O)C(=O)N[C@@H](CCC(=O)O)C(=O)N[C@@H](Cc1ccccc1)C(=O)N[C@H](C(=O)N[C@@H](CCC(=O)O)C(=O)N[C@@H](Cc1c[nH]c2ccccc12)C(=O)N[C@@H](CC(C)C)C(=O)N[C@@H](CCC(=O)O)C(=O)NCC(=O)NCC(=O)N1CCC[C@H]1C(=O)N[C@@H](CO)C(=O)N[C@@H](CO)C(=O)NCC(N)=O)C(C)C)C(=O)O)C(=O)O` [Compound 76] (HELM PEPTIDE1{H.[Aib].Q.G.T.F.T.S.D.Y.S.K.Y.L.E.E.K.R.A.K.E.F.V.E.W.L.E.G.G.P.S.S.G.[am]}|PEPTIDE2{[CCCCCCCCCCCCCCCC(=O)[*:2]].[gGlu].[gGlu]}$PEPTIDE1,PEPTIDE2,20:R3-3:R2$$$V2.0; N-terminus assumed), the EC50 falls from 0.725 nM to 0.191 nM (3.8-fold).

`CCCCCCCCCCCCCCCC(=O)N[C@@H](CCC(=O)N[C@@H](CCC(=O)NCCCC[C@H](NC(=O)[C@H](CC(=O)O)NC(=O)[C@H](CO)NC(=O)[C@@H](NC(=O)[C@H](Cc1ccccc1)NC(=O)[C@@H](NC(=O)CNC(=O)[C@H](CCC(N)=O)NC(=O)C(C)(C)NC(=O)[C@@H](N)Cc1c[nH]cn1)[C@@H](C)O)[C@@H](C)O)C(=O)N[C@@H](CO)C(=O)N[C@@H](CCCCN)C(=O)N[C@@H](Cc1ccc(O)cc1)C(=O)N[C@@H](CC(C)C)C(=O)N[C@@H](CCC(=O)O)C(=O)N[C@@H](CO)C(=O)N[C@@H](CCC(=O)O)C(=O)N[C@@H](CCCNC(=N)N)C(=O)N[C@@H](C)C(=O)N[C@@H](CCCCN)C(=O)N[C@@H](CCC(=O)O)C(=O)N[C@@H](Cc1ccccc1)C(=O)N[C@H](C(=O)N[C@@H](CCC(=O)O)C(=O)N[C@@H](Cc1c[nH]c2ccccc12)C(=O)N[C@@H](CC(C)C)C(=O)N[C@H](C(=O)N[C@@H](CCCCN)C(=O)N[C@@H](CCC(=O)O)C(=O)NCC(=O)NCC(=O)N1CCC[C@H]1C(=O)N[C@@H](CO)C(=O)N[C@@H](CO)C(=O)NCC(N)=O)C(C)C)C(C)C)C(=O)O)C(=O)O` [Compound 19] (HELM PEPTIDE1{H.[Aib].Q.G.T.F.T.S.D.K.S.K.Y.L.E.S.E.R.A.K.E.F.V.E.W.L.V.K.E.G.G.P.S.S.G.[am]}|PEPTIDE2{[CCCCCCCCCCCCCCCC(=O)[*:2]].[gGlu].[gGlu]}$PEPTIDE1,PEPTIDE2,10:R3-3:R2$$$V2.0; N-terminus assumed) showed an EC50 of 6.25 nM.
